Assay results reported in patent US12336991B2, “Factor XIIA inhibitors” (UNIVERSITY OF LEEDS, priority 2018, dated 2025).

Assays:
Assay type in all cases: biochemical
thrombin = molecular target: T1, thrombin (Homo sapiens, UniProt P00734); assay: Determination of selectivity: thrombin inhibition, chromogenic substrate GPR assay; conditions: fold selectivity for FXIIa over thrombin
T1 construct: FXa (5 nM) and thrombin (5 nM)
Outline: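 Thrombin (5 nM) preincubated with compound 10 min at 37 °C in 50 mM Tris, 137 mM NaCl, pH 7.4, 5% DMSO, then GPR substrate ([…]) added. Absorbance at 405 nm read kinetically for 3 h; IC50 from initial rates, converted to Ki via Ki=IC50/(1+[S]/Km).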

FXa = FXa (Homo sapiens, UniProt P00742); assay: Determination of selectivity: FXa inhibition, chromogenic substrate S2765 assay; conditions: fold selectivity for FXIIa over FXa
FXa, sequence (P00742 235-488 limits assumed): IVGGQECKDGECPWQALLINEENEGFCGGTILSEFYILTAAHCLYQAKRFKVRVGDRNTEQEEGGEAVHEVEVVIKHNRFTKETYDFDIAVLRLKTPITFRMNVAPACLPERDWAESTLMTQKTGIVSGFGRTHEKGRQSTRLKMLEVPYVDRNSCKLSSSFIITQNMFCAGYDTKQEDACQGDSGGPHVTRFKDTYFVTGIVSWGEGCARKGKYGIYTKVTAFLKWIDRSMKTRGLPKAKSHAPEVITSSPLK
FXa, sequence (P00742 41-179 partner limits assumed): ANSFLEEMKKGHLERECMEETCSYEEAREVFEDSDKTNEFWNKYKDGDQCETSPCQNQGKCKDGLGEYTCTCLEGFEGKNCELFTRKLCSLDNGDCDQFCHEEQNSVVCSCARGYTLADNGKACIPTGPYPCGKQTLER
Outline: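 Human FXa (5 nM) preincubated with compound (top 500 μM, 5% DMSO) 10 min at 37 °C in 50 mM Tris, 137 mM NaCl pH 7.4, then S2765 ([…]) added; A405 kinetics over 3 h at 37 °C. IC50 from initial rates, converted to Ki via Cheng-Prusoff.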

FXIIa = molecular target: T2, FXIIa (Homo sapiens, UniProt P00748); assay: Determination of Factor XIIa inhibition, chromogenic substrate S-2302 assay; conditions: human FXIIa alpha
T2 sequence (P00748 373-615 limits assumed): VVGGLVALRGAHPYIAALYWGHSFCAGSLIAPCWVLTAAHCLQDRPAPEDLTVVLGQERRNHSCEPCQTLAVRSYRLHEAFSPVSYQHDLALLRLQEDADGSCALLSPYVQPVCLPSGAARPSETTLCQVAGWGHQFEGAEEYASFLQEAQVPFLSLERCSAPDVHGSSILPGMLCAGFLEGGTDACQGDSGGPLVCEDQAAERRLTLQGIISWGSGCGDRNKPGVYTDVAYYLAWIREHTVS
T2 sequence (P00748 20-372 partner limits assumed): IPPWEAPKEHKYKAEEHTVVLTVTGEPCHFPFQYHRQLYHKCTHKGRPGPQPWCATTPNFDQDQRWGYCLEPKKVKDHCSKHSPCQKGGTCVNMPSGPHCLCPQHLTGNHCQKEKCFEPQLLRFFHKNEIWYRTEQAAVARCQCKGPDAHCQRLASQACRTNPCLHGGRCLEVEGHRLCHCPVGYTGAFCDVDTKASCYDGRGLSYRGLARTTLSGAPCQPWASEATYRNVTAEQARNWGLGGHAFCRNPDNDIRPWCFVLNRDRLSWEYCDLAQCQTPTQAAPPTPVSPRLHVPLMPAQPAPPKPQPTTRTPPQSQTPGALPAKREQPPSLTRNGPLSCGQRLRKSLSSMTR
Outline: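 FXIIa (10 nM) preincubated with compound 10 min at 37° C. in 50 mM Tris, 137 mM NaCl pH 7.4, 5% DMSO, top concentration 500 μM, then S-2302 added ([…]). Absorbance at 405 nm read kinetically for 3 h; IC50 from initial rates, converted to Ki by Cheng-Prusoff.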

SMILES | Thrombin (human)/FXIIa alpha (human) (thrombin) | FXa (human)/FXIIa alpha (human) (FXa) | Ki (FXIIa) [nM]
COc1ccc(C[C@@H]2C[C@@H](C(=O)NCc3cc4cnccc4[nH]3)N(C(=O)[C@H]3C[C@@H](N4CCCCC4)CN3)C2)cc1 [Example M00964] | +++ (fold selectivity values greater than 100) | ∘∘∘ | < 200
Cn1nnc2cc(CNC(=O)[C@@H]3C[C@@H](Cc4ccncc4)CN3C(=O)[C@@H](CCC(=O)N3CCCC3)NCCC(F)(F)F)ccc21 [Example M05262] | ++ (fold selectivity value of 10 to 100) | ∘∘ | > 2000
COc1ccc(C[C@@H]2C[C@@H](C(=O)NCc3ccc4c(c3)nnn4C)N(C(=O)[C@H](N)CCC(=O)N3CCCC3)C2)cc1 [Example M05272] | +++ (fold selectivity values greater than 100) | ∘∘∘ | < 200
COc1ccc(C[C@@H]2C[C@@H](C(=O)NCc3cc4cnccc4[nH]3)N(C(=O)C3NCCc4cc(Cl)ccc43)C2)cc1 (stereo partly drawn) [Example M00965] | +++ (fold selectivity values greater than 100) | ∘∘∘ | < 200
COc1ccc(C[C@@H]2C[C@@H](C(=O)NCc3ccc4c(c3)nnn4C)N(C(=O)[C@H]3C[C@@H](c4ccccc4)CN3C)C2)cc1 [Example M05389, (2S,4R)-4-(4-Methoxy-benzyl)-1-((2R,4S)-1-methyl-4-phenyl-pyrrolidine-2-carbonyl)-pyrrolidine-2-carboxylic acid (1-methyl-1H-benzotriazol-5-ylmethyl)-amide] | +++ (fold selectivity values greater than 100) | ∘∘∘ | 200 to 2000
COc1ccc(C[C@@H]2C[C@@H](C(=O)NCc3cc4cnccc4o3)N(C(=O)[C@H](N)CCC(=O)N3CCCC3)C2)cc1 [Example M05404] | +++ (fold selectivity values greater than 100) | ∘∘∘ | < 200
COc1ccc(C[C@@H]2C[C@@H](C(=O)NCc3ccc4c(c3)nnn4C)N(C(=O)[C@H]3CC(c4cccnc4F)CN3)C2)cc1 (stereo partly drawn) [Example M05418] | +++ (fold selectivity values greater than 100) | ∘∘∘ | 200 to 2000
Cn1nnc2cc(CNC(=O)[C@@H]3C[C@H](Cc4ccccc4)CN3C(=O)[C@H](N)CCC(=O)N3CCCC3)ccc21 [Example M05211, (2S,4S)-1-((R)-2-Amino-5-oxo-5-pyrrolidin-1-yl-pentanoyl)-4-benzyl-pyrrolidine-2-carboxylic acid (1-methyl-1H-benzotriazol-5-ylmethyl)-amide] | +++ (fold selectivity values greater than 100) | ∘∘∘ | 200 to 2000
COc1cccc(CC2C[C@@H](C(=O)NCc3ccc4c(c3)nnn4C)N(C(=O)[C@H](N)CCC(=O)N3CCCC3)C2)c1 (stereo partly drawn) [Example M05300] | +++ (fold selectivity values greater than 100) | ∘∘∘ | 200 to 2000
Nc1cc(CNC(=O)[C@@H]2C[C@@](O)(c3ccccc3)CN2C(=O)[C@H](N)CCc2ccccc2)ccn1 [Example M05125] | ++ (fold selectivity value of 10 to 100) | ∘∘ | 200 to 2000
Cn1nnc2cc(CNC(=O)[C@@H]3C[C@H](NCc4cccc(C(F)(F)F)c4)CN3C(=O)[C@H](N)CCc3ccccc3)ccc21 [Example M05159] | ++ (fold selectivity value of 10 to 100) | ∘∘ | > 2000
COc1ccc(C[C@@H]2C[C@@H](C(=O)NCc3ccc4c(c3)nnn4C)N(C(=O)[C@H](N)CCC(=O)N3CCC[C@H]3C#N)C2)cc1 [Example M05402] | +++ (fold selectivity values greater than 100) | ∘∘∘ | < 200
COc1ccc(C[C@@H]2C[C@@H](C(=O)NCc3ccc4c(c3)nnn4C)N(C(=O)[C@H]3CC(c4ccc[nH]c4=O)CN3)C2)cc1 (stereo partly drawn) [Example M05419] | +++ (fold selectivity values greater than 100) | ∘∘∘ | < 200
COc1ccc(C[C@@H]2C[C@@H](C(=O)NCc3ccc4c(c3)nnn4C)N(C(=O)[C@H]3CC(c4cnccc4OC)CN3)C2)cc1 (stereo partly drawn) [Example M05410] | + (fold selectivity values less than 10) | ∘∘ | > 2000
COc1ccc(C[C@@H]2C[C@@H](C(=O)NCc3ccc4c(c3)nnn4C)N(C(=O)C3NCCc4cc(Cl)ccc43)C2)cc1 (stereo partly drawn) [Example M05430] | +++ (fold selectivity values greater than 100) | ∘∘∘ | 200 to 2000
COc1ccc(C[C@@H]2C[C@@H](C(=O)NCc3ccc4c(c3)nnn4C)N(C(=O)[C@H]3CC(c4c[nH]cn4)CN3)C2)cc1 (stereo partly drawn) [Example M05464] | ++ (fold selectivity value of 10 to 100) | ∘∘ | > 2000
CN(C1CCCCC1)C1C[C@@H](C(=O)NCc2ccc3c(c2)nnn3C)N(C(=O)[C@H](N)CCc2ccccc2)C1 (stereo partly drawn) [Example M05242] | ++ (fold selectivity value of 10 to 100) | ∘∘ | > 2000
Cn1nnc2cc(CNC(=O)[C@@H]3C[C@H](C(F)(F)F)CN3C(=O)[C@H]3C[C@@H](c4ccccc4)CN3)ccc21 [Example M05280] | ++ (fold selectivity value of 10 to 100) | ∘∘ | > 2000
Cn1nnc2cc(CNC(=O)[C@@H]3C[C@H](CC4CCOCC4)CN3C(=O)[C@H](N)CCC(=O)N3CCCC3)ccc21 [Example M05293] | ++ (fold selectivity value of 10 to 100) | ∘∘ | > 2000
COc1ccc(C[C@@H]2C[C@@H](C(=O)NCc3ccc4c(c3)nnn4C)N(C(=O)[C@H]3C[C@@H](Cc4ccccc4)CN3)C2)cc1 [Example M05383] | ++ (fold selectivity value of 10 to 100) | ∘∘∘ | 200 to 2000
Cn1nnc2cc(CNC(=O)[C@@H]3C[C@@H](Cc4ccc(S(C)(=O)=O)cc4)CN3C(=O)[C@H](N)CCC(=O)N3CCCC3)ccc21 [Example M05384] | +++ (fold selectivity values greater than 100) | ∘∘∘ | 200 to 2000
NCc1ccc(CNC(=O)[C@@H]2C[C@@H](Cc3ccncc3)CN2C(=O)[C@H](N)CCc2ccccc2)cc1 [Example M05156] | + (fold selectivity values less than 10) | ∘∘∘ | 200 to 2000
COc1ccc(C[C@@H]2C[C@@H](C(=O)NCc3ccc4c(c3)nnn4C)N(C(=O)[C@H](N)CC3CCCc4ccccc43)C2)cc1 (stereo partly drawn) [Example M05413] | ++ (fold selectivity value of 10 to 100) | ∘∘∘ | 200 to 2000
COc1ccc(C[C@@H]2C[C@@H](C(=O)NCc3cc4cnccc4[nH]3)N(C(=O)C3C[C@@H](C(=O)N4CCCC4)CCN3)C2)cc1 (stereo partly drawn) [Example M00966] | +++ (fold selectivity values greater than 100) | ∘∘∘ | < 200
